Measured values published in publication PMC11625344, “A peptide derived from the amino terminus of leptin improves glucose metabolism and energy homeostasis in myotubes and db/db mice” (The Journal of Biological Chemistry, 2024).
Where no end group is shown, it is not given here.

Experiments:
[1] = tested on: L6 cells; settings: peptide up to 100 μM, 2 h; MTT, absorbance 540 nm
Method: Biological activity and toxicity of the purified peptides were studied on rat skeletal muscle cell line L6. L6 cell line was seeded, grown, and differentiated according to the protocols described earlier ([34]). In brief, cells were grown in low glucose-DMEM and differentiated using DMEM containing 2% fetal bovine serum supplemented 1% Antibiotic-Antimycotic ([38], [39]).

[2] = tested on: AKT; experiment: AKT activation (p-AKT), Western blot; assay type: cell-based, rat; settings: leptin-1 5 μM 3 h; insulin 100 nM 30 min; vs vehicle; normalised to total AKT
Excerpt: (§1) In order to examine the peptide-induced activation of a protein, related to a signaling event, we have assessed its expression in the peptide-treated L6 myotubes with respect to the myotubes, not treated with the peptide and myotubes-treated with a positive control. For this purpose, we have performed Western blotting experiments by usual procedure after resolving the proteins of the whole cell lysates of L6 myotubes, treated at different experimental conditions by SDS-PAGE. Briefly describing the procedure, whole cell lysate was prepared by lysing the cells in radioimmunoprecipitation assay lysis buffer and equal amount of lysate was resolved on 10% SDS-PAGE. Resolved proteins were transferred to nitrocellulose membrane and the membrane was blocked with 5% skimmed milk solution. Incubated with specific primary (ratio of 1: 2500 of antibody to phosphate-buffered saline with Tween 20 (PBST) used for antibodies purchased from Sigma-Aldrich and Millipore, 1:1000 for antibodies purchased from Santa Cruz) and secondary antibodies (antibody concentration of 1:2000 in PBST), and the blots were developed using ChemiDoc ([34]).

[3] = tested on: GLUT4; experiment: GLUT4 translocation to plasma membrane, immunocytochemistry; assay type: cell-based, rat; settings: leptin-1 5 μM 3 h; insulin 100 nM 20 min; confocal imaging
Method: ICC analysis for GLUT4 translocation to PM was studied in L6 myotubes. L6 cells were grown and differentiated in 4-chambered slide following the protocol described above. The differentiated cells were treated with test peptide and positive control insulin for specified time period. Cells were fixed in formalin and perforated using 0.4% Triton X-100. The cells were then immunostained using anti-GLUT4 primary antibody (1:100 dilution) and incubated overnight at 4 °C. Cells were washed three times with PBST and then incubated with Alexa flour-488 tagged secondary antibody and incubated for 2 h. After 2 h, cells were again washed 5 times with PBST, and nuclear staining was performed by incubating the cells for 30 min with Hoechst nuclear stain. The cells were then again washed 3 times and the slide was mounted using DPX mounting media. Imaging of the slides was done using confocal microscope, blue range and green ranges filters were used ([34]).

[4] = tested on: GLUT4; experiment: GLUT4 expression, Western blot; assay type: cell-based, rat; settings: peptides 5 μM 3 h; insulin 100 nM 30 min; vs vehicle; beta-actin loading control
Excerpt: as §1

[5] = tested on: L6 myotubes; experiment: Glucose uptake assay with 2NBDG; assay type: cell-based, rat
Method: As described earlier ([34]), glucose uptake assay was performed in L6 myotubes using 2NBDG. Briefly describing, L6 cells were seeded and differentiated to myotubes as described above. Differentiated myotubes were serum fasted for 6 h with serum free DMEM and the cells were incubated with desired concentration of leptin-1 and leptin-2 peptides for specified period. […] Following peptide treatment, the cells were incubated with 200 μM of 2NBDG for 10 min and the residual 2NBDG was removed and washed with PBS. Cells were trypsinized and collected in fluorescence activated cell sorting tube for fluorescence measurement. To estimate the uptake of fluorescent glucose analog, fluorescence of the cells from different samples was measured using fluorescence activated cell sorting Aria instrument.

[6] = tested on: GLUT4; experiment: GLUT4 translocation to plasma membrane, Western blot of cytosolic and membrane fractions; assay type: cell-based, rat; settings: leptin-1 5 μM 3 h; insulin 100 nM 20 min; vs vehicle-treated control
Method: Separation of cytosolic and membrane fraction was performed according to the protocol mentioned earlier ([34]). In brief, the harvested cells were resuspended in membrane fractionation buffer ([40]) and kept for 1 h with regular tapping. Cellular debris were removed by centrifugation at 800g for 10 min, and the supernatant was collected in fresh micro centrifuge tube, which contains the cytosolic and crude membrane fractions. Crude membrane and cytosolic fraction were separated by centrifugation at 12000 rpm for 10 min at 4 °C. The crude membrane pellet was resuspended in radioimmunoprecipitation assay lysis buffer to elute out membrane proteins and then centrifuged at 15000 rpm for 15 min. Whole process was performed on ice. Both the samples were than resolved on 10% SDS-PAGE ([38], [40]).
In order to examine the peptide-induced activation of a protein, related to a signaling event, we have assessed its expression in the peptide-treated L6 myotubes with respect to the myotubes, not treated with the peptide and myotubes-treated with a positive control. For this purpose, we have performed Western blotting experiments by usual procedure after resolving the proteins of the whole cell lysates of L6 myotubes, treated at different experimental conditions by SDS-PAGE. […]

[7] = tested on: IRS1; experiment: IRS1 expression, Western blot; assay type: cell-based, rat; settings: peptides 5 μM 3 h; insulin 100 nM 30 min; vs vehicle
Excerpt: as §1

[8] = tested on: L6 myotubes; experiment: Mitochondrial biogenesis assay using MitoTracker red; assay type: cell-based, rat; settings: 24 h incubation; rosiglitazone 10 μM; confocal microscopy, ImageJ
Method: Mitochondrial biogenesis was studied in L6 cells using mitochondrial stain MitoTracker CMXRos. The cells L6 was seeded in 4-chambered slide with a density of 20,000 cells per chamber. The cells were differentiated to myotubes following the protocol mentioned above. […] Following treatment with test peptides the cells were stained with MitoTracker red and Hoechst. The cells were then washed with PBS to remove the residual stains. Cells were then fixed with 4% paraformaldehyde and the slides were mounted using DPX. The slides were then imaged using confocal microscope. The excitation and emission wavelengths were fixed at 578 and 599 nm for red and 357 and […] for blue emission, respectively ([41]).

[9] = tested on: L6 myotubes; experiment: ATP extraction and determination; assay type: cell-based, rat; settings: 24 h; rosiglitazone 10 μM; vehicle-treated control 4 μM; ATP determination kit
Method: Whole amount of ATP was extracted from L6-myotubes treated with leptin-1 and leptin-2 peptides and Rosiglitazone, according to the protocol mentioned in the literature ([42]). Briefly, the cells were harvested and pelleted by centrifugation. The harvested cells were incubated with 1% trichloroacetic acid and 4 mM EDTA solution for 10 min on ice for ATP extraction. The samples were centrifuged at 12,000 rpm for 10 min to pellet down the debris, and the supernatant was used for ATP determination. ATP determination was performed according to the protocol mentioned in the ATP determination kit’s manual from Thermo Fisher Scientific. Interference of trichloroacetic acid on ATP determination was avoided by 10× dilution of the sample in water.

[10] = tested on: BALB/c mice; experiment: In vivo acute toxicity and survival study; design: species or system mouse
Method: In vivo toxicity and survival study with the peptides were performed in BALB/c mice. Mice were divided into five groups, each group with five number of mice. One group was kept as control group and injected only with vehicle (Water). […] Dosing was done through intraperitoneal route and only a single dosing was performed. The mice were kept under observation for a week after peptide injection. After 1 week of observation, survival of mice in all groups was recorded. At seventh day, blood samples were collected from each mice in all the groups, and the serum was isolated to estimate aspartate transaminase and alanine transaminase level ([43]).

[11] = tested on: adiponectin; experiment: Serum adiponectin ELISA; assay type: in vivo, mouse; settings: metformin 50 mg/kg, 30 days; vs diabetic db/db control group
Method: (§2) In vivo antidiabetic activity of the peptide was studied in diabetic animal model db/db mice. Male db/db mice with hyperglycemia were identified by checking their blood glucose level and selected for the study. Mice were divided into four groups, and the number of animals in each group was five. Blood glucose levels were measured using Accu-Chek glucometer and blood glucose measurement strips. The study was continued for 30 days. At the start of the study, fasting blood glucose in each animal was recorded, and OGTT was performed in each animal of all groups. To perform OGTT, the mice were fasted for 6 h, and then 30 min before oral glucose loading, the fasting blood glucose level in each mouse was recorded. After fasting of 6 h 3 g/kg body weight glucose was loaded orally and blood glucose at 0 minute was recorded simultaneously. Blood glucose was measured after every 30 min at 30, 60, 90, and 120 min after oral glucose loading. Time of oral glucose loading was considered as 0 min. After OGTT on day-1 peptide dosing was started. Dosing of M10 peptide at 10 mg/kg and 20 mg/kg body weight was started from day one on alternate day basis through intraperitoneal route for 30 days. Thus 15 doses of the peptide/drug were administered in each db/db mice over a period of 30 days. On final day, OGTT was performed again with the same procedure described above. […]

[12] = tested on: AMPK protein; experiment: AMPK activation (Thr-172 phosphorylation), Western blot; assay type: cell-based, rat; settings: peptides 5 μM 3 h; metformin 50 μM 6 h; normalised to total AMPK
Excerpt: as §1

[13] = tested on: IL-6; experiment: Serum IL-6 ELISA; assay type: in vivo, mouse; settings: metformin-treated db/db group (50 mg/kg), 30 days
Method: as §2

[14] = tested on: TNFα; experiment: Serum TNFα ELISA; assay type: in vivo, mouse; settings: metformin-treated db/db group (50 mg/kg), 30 days
Method: as §2

[15] = tested on: acetyl-CoA carboxylase-2 (ACC2); experiment: ACC2 serine-80 phosphorylation, Western blot; assay type: cell-based, rat
Excerpt: as §1

[16] = tested on: db/db mice; experiment: In vivo antidiabetic activity, OGTT and fasting blood glucose; design: species or system mouse; settings: metformin 50 mg/kg i.p. on alternate days for 30 days, n = 5
Method: In vivo antidiabetic activity of the peptide was studied in diabetic animal model db/db mice. Male db/db mice with hyperglycemia were identified by checking their blood glucose level and selected for the study. Mice were divided into four groups, and the number of animals in each group was five. Blood glucose levels were measured using Accu-Chek glucometer and blood glucose measurement strips. The study was continued for 30 days. At the start of the study, fasting blood glucose in each animal was recorded, and OGTT was performed in each animal of all groups. To perform OGTT, the mice were fasted for 6 h, and then 30 min before oral glucose loading, the fasting blood glucose level in each mouse was recorded. After fasting of 6 h 3 g/kg body weight glucose was loaded orally and blood glucose at 0 minute was recorded simultaneously. Blood glucose was measured after every 30 min at 30, 60, 90, and 120 min after oral glucose loading. Time of oral glucose loading was considered as 0 min. After OGTT on day-1 peptide dosing was started. […] Thus 15 doses of the peptide/drug were administered in each db/db mice over a period of 30 days. On final day, OGTT was performed again with the same procedure described above. Blood sample was collected from each group for serum analysis. Mice were sacrificed by CO2 induced hypoxia. […]

[17] = 10, 20, 40 and 80 mg/kg, day 7, comparable to vehicle-treated control

VVALSRLQGSLQDMLW-NH2 [leptin-2]
viability of L6 cells [1]: ~95%

insulin: human insulin (Sigma-Aldrich), positive control at 100 nM
AKT activation (p-AKT) [2]: 4.2 fold | GLUT4 translocation to PM (ICC, green fluorescence on PM) [3]: appreciable increase in green fluorescence | GLUT4 expression [4]: 1.6 fold | glucose uptake, positive control ([5]; insulin 100 nM, Fig. 2D): significantly increased glucose uptake | glucose uptake without inhibitor ([5]; leptin-1 5 μM 3 h, insulin 100 nM 30 min, Fig. 5C): 2.4 fold | GLUT4 translocation to PM [6]: 4 fold | IRS1 activation and expression [7]: 1.6 fold

CN(CCOc1ccc(CC2SC(=O)NC2=O)cc1)c1ccccn1 (centres unmarked) [rosiglitazone]
mitochondrial biogenesis (Mitotracker red fluorescence) [8]: significantly increased mitochondrial biogenesis | ATP production [9]: 13 µM

KQKVTGLDFIPGLHPIL-NH2 [leptin-1]
viability of L6 cells [1]: ~95% | survival ([10]; 10, 20, 40 and 80 mg/kg body weight, intraperitoneal, 7 days): 100% | serum alanine transaminase level [10, 17]: normal | serum aspartate transaminase level [10, 17]: normal | body weight ([10]; all peptide-treated groups, until end of 7 days): stable body weights

CN(C)C(=N)N=C(N)N [metformin]
increase in serum adiponectin production [11]: 2.6 fold | AMPK Thr-172 phosphorylation [12]: 2 fold | inhibition of IL-6 production [13]: 52% | inhibition of TNFα production [14]: 44% | phosphorylation of S80 of ACC2 after dorsomorphin pretreatment ([15]; dorsomorphin 1 h, then leptin-1 5 μM 3 h or metformin): prevented | phosphorylation of S80 residue of ACC2 ([15]; peptides 5 μM 3 h, metformin positive control): significantly increased S80 residue phosphorylation | fasting blood glucose (FBG) [16]: reduced FBG | glucose tolerance (OGTT) ([16]; oral glucose 3 g/kg): improved glucose tolerance
